Columns and labels:
β-cardiac myosin = target: T1, β-cardiac myosin (Homo sapiens, UniProt P12883); experiment: NADH-linked actin-activated ATPase assay with purified recombinant S1; format: biochemical
T1 construct: gene MYH7; with actin (porcine ventricles); endogenous C2C12 light chains
Source text: NADH-linked actin-activated ATPase assay with purified recombinant S1 on β-cardiac myosin | we measured the IC50 value for β-cardiac myosin S1.

Myh7b = target: T2, Myh7b (Homo sapiens, UniProt A7E2Y1); experiment: as above; format: biochemical
T2 construct: with actin (porcine ventricles); endogenous C2C12 light chains
T2 sequence (A7E2Y1 43-892): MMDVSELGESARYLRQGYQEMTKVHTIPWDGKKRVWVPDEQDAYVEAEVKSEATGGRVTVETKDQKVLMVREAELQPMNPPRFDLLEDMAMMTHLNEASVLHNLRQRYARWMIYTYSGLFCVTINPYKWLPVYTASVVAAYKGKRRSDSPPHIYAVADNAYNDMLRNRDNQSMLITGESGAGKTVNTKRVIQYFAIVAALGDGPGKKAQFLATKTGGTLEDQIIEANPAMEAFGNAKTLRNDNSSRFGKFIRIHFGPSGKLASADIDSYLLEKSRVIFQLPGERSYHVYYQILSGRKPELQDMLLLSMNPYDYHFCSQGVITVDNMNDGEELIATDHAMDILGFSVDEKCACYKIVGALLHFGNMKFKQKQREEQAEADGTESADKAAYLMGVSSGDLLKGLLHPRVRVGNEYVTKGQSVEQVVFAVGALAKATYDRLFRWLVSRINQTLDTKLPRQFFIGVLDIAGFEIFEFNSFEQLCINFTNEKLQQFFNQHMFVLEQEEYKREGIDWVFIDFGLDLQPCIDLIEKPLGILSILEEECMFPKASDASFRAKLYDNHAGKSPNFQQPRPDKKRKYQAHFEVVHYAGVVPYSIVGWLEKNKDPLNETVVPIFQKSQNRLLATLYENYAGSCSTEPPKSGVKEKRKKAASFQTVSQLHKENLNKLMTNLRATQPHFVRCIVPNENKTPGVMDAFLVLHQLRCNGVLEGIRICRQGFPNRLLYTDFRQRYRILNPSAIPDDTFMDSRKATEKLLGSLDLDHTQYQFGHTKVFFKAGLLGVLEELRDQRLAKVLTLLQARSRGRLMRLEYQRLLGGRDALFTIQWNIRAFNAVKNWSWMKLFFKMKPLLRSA

T1 sequence (P12883 1-842): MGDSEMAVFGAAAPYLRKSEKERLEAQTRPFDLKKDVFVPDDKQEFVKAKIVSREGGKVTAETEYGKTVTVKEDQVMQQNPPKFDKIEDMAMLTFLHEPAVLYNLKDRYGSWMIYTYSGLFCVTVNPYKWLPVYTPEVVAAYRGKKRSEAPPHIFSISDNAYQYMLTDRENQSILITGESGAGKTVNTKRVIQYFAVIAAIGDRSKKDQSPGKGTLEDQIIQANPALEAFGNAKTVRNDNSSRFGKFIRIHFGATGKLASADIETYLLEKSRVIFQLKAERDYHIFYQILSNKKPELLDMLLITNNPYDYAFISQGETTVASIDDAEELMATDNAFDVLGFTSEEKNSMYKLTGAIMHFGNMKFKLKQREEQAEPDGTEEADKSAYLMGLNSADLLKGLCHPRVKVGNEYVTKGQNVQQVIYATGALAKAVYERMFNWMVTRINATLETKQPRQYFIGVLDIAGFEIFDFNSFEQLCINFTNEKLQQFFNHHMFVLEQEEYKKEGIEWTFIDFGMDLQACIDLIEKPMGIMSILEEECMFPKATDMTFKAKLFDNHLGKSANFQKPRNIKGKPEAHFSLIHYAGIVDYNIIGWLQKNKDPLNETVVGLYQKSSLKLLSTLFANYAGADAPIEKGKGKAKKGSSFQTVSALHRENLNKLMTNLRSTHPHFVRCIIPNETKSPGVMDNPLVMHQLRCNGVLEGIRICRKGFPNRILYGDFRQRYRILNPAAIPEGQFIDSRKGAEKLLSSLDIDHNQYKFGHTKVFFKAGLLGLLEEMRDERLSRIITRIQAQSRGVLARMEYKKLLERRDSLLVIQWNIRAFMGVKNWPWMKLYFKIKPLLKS

For Cc1ccc2c(c1)C(=O)[C@]1(O)CCN(c3ccccc3)C1=N2 [Blebbistatin], the IC50 (β-cardiac myosin) was 1120 ± 290 nM and the IC50 (Myh7b) was 360 ± 80 nM.

— paper PMC9995120, “Drug specificity and affinity are encoded in the probability of cryptic pocket opening in myosin motor domains” (eLife, 2023)
